Key:
[1] = molecular target: FKBP12/YY1 (Mus musculus, UniProt P26883); assay: Co-immunoprecipitation after Yy1 pull-down in cultured TECs; assay type: cell-based; conditions: FK506 added to culture media, IP: Yy1
Description: (§1) CoIP was performed with Protein G Immunoprecipitation Kit (Roche, Basel, Switzerland). Protein A/G PLUS Agarose beads (Santa Cruz Biotechnology, Santa Cruz, USA) were used for the lysate pre-cleaning and pull-down. For each CoIP, 2×10^7 MCT cells have been used following the manufacturer's instructions. Yy1 (ab12132, Abcam Biochemicals, Cambridge, UK), Fkbp12 (ab2918, Abcam Biochemicals, Cambridge, UK), Arnt (3718, Cell Signaling, Danvers, USA), GFP (MA5-15256, Thermo Fisher Scientific, Waltham, USA) and myc-tag antibodies (2276, Cell Signaling, Danvers, USA) were used for immunoprecipitation, detection of co-immunoprecipitated Fkbp12 (ab12132, Abcam Biochemicals, Cambridge, UK), Hif1α ([MUT], Sigma, St. Louis, USA), Ahr (MA1-514, Thermo Fisher Scientific, Waltham, USA), GFP (MA5-15256, Thermo Fisher Scientific, Waltham, USA) and myc-tag (2276, Cell Signaling, Danvers, USA) was performed by immunoblotting.

[2] = tested on: ARNT/HIF1α, ARNT/AHR; assay: Co-immunoprecipitation using antibodies to ARNT in cultured TECs; assay type: cell-based, mouse; conditions: cultured TECs in response to FK506 (200 pM), IP: Arnt
Description: as §1

[3] = tested on: proximal ALK3 promoter (CACGTG E-box motif); assay: ALK3 ChIP-PCR after Arnt pull-down; assay type: cell-based, mouse; conditions: TECs upon exposure to FK506
Description: DNA and protein interaction was performed with the OneDay ChIP Kit (Diagenode, Seraing, Belgium) according to the manufacturer's instructions. 2×10^7 MCT cells have been used for each ChIP reaction. Cell lysates were sonicated using an ultrasonic processor S-4000 (Misonix, Farmingdale, USA). Immunoprecipitation was performed with a ChIP grade antibody against Yy1 (ab12132, Abcam Biochemicals, Cambridge, UK) and Arnt (3718, Cell Signaling, Danvers, USA). Enriched DNA was analyzed by qRT-PCR with EpiTect ChIP qPCR primers for genomic Arnt (Qiagen, Hilden, Germany), oligonucleotide sequences for genomic Alk3 are listed in Table 10.

[4] = tested on: TEC cultures; assay: RT2 Profiler PCR arrays (transcription factor, hypoxia, drug metabolism) in TECs; assay type: cell-based
Description: To compare qPCR-validated cDNA samples after FK506 treatment and DMSO control, gene expression profiling was performed using commercially available plates (PAHS-075Z/PAMM-002Z/PAMM032Z, SABiosciences, Qiagen, Hilden, Germany). HK-2 cells were plated in 6 well culture plates as previously described and stimulated with 150 ng/mL FK506, MCT cells with 200 pM FK506. After 6 hours, cells were dissolved and RNA was isolated, digested and reverse transcripted. The 25 ng cDNA equivalent of total RNA was added to the reaction mixture containing diluted 2× RT^2 SYBR Green ROX qPCR Mastermix (Qiagen, Hilden, Germany) in a final volume of 25 μL for each well of the RT2 Profiler PCR. PCR reactions were performed under recommended thermal cycling conditions (10 min at 95° C., 15 s at 95° C., 1 min at 60° C. for 40 cycles). To verify PCR specificity, dissociation curve analysis was generated. Relative levels of mRNA expression were normalized in all the samples with expression levels of included housekeeping genes, and data analysis was done using an web-based analysis software provided by SABiosciences. Transcription factor binding sites within the ALK3 proximal promoter was performed 5000 basepairs relative to transcriptional start site using […] database (98).

[5] = tested on: ARNT, ALK3, pSmad1/5/8; assay: Kidney allograft biopsies of transplant recipients (immunolabelling, qRT-PCR); assay type: in vivo, human; conditions: FK506-based immunosuppressive regimen as compared to CsA
Description: The use of parts of human specimens for research purposes as approved by the Ethics Committee of the University Medicine Göttingen, clinical data are presented in Table 6.
Paraffin-embedded specimens were deparaffinized in xylene and rehydrated in ethanol containing distilled water. Tissue sections were stained using polyclonal antibodies against ALK3 (sc-20736, Santa Cruz Biotechnology, Dallas, USA) and ARNT (3718S, Cell Signaling, Danvers, USA), peroxidase labeling was performed using Vectastain Universal Elite ABC Kit (Vector Laboratories, Burlingame, USA) according to the manufacturer's protocol. AEC Substrate-Chromogen (Dako, Glostrup, Denmark) was applied for peroxidase visualization according to the manufacturer's protocol. Nuclear counterstain was performed by using Mayer's Hematoxylin Solution (Sigma, St. Louis, USA). […]
For SYBR-based real-time PCR, cDNA synthesis was performed by using DNase I digestion (Invitrogen, Carlsbad, USA) and SuperScript II Reverse Transcriptase (Invitrogen, Carlsbad, USA) according to the manufacturer's protocol. […] The relative expression levels were calculated using the equation 2^−ddCt.

[6] = tested on: intrarenal ARNT and ALK3 transcription; conditions: GSE1563; regimens including FK506 compared to CsA; cited from earlier work
[7] = tested on: murine TECs; assay: Murine TEC cultures (MCT): mRNA expression (qRT-PCR), pSmad1/5/8 immunostaining, proliferation; assay type: cell-based, mouse; conditions: cultured TECs, GPI-1046 10 μM

Chain of FKBP12/YY1 (P26883 whole entry): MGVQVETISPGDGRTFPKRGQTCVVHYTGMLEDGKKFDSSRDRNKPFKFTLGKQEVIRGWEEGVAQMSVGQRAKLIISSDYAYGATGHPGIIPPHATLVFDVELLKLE

Compound	FKBP12/YY1 interaction [1]	ARNT/HIF1α or ARNT/AHR interaction [2]	ARNT binding to CACGTG motif within the proximal ALK3 promoter [3]	induction of transcriptional factors AR, ARNT, CEPB, CREB1, GATA3 and MAX (array) ([4]; TEC cultures upon FK506 exposure)	pathways involved in hypoxic signaling or drug metabolism (mRNA expression arrays) ([4]; TECs exposed to FK506)	immunolabelling of ARNT, ALK3 and pSmad1/5/8 [5]	intrarenal ARNT and ALK3 mRNA expression levels [5]	intrarenal ARNT and ALK3 transcription [6]	canonical BMP signaling responses [7]	transcriptional induction of ARNT and ALK3 mRNA expression levels [7]
C=CC[C@@H]1/C=C(\C)C[C@H](C)C[C@H](OC)[C@H]2O[C@@](O)(C(=O)C(=O)N3CCCC[C@H]3C(=O)O[C@H](/C(C)=C/[C@@H]3CC[C@@H](O)[C@H](OC)C3)[C@H](C)[C@@H](O)CC1=O)[C@H](C)C[C@@H]2OC [FK506, tacrolimus]	not detectable	did not provide evidence	significantly increased	at least 2 fold	did not markedly induce	significantly increased	Transcriptional induction	enhanced	–	–
CCC(C)(C)C(=O)C(=O)N1CCC[C@H]1C(=O)OCCCc1cccnc1 [GPI-1046, 3-(3-pyridyl)-1-propyl-(2S)-1-(3,3-dimethyl-1,2-dioxopentyl)-2-pyrrolidinedine carboxylate]	–	–	–	–	–	–	–	–	activation of canonical BMP signaling responses	equally effective
